The target in this test is T1, epidermal growth factor receptor tyrosine kinase (EGFR-TK) (Homo sapiens, UniProt P00533).
T1 construct: purified Epidermal Growth Factor Receptor (Sigma-Aldrich)
The test can be described thus: ELISA kinase inhibition assay with purified EGFR. It counts as biochemical. For orientation: An ELISA detects its analyte on a solid surface through an enzyme-linked reagent.

Each structure is given as a SMILES string.

T1 sequence (P00533 25-1210): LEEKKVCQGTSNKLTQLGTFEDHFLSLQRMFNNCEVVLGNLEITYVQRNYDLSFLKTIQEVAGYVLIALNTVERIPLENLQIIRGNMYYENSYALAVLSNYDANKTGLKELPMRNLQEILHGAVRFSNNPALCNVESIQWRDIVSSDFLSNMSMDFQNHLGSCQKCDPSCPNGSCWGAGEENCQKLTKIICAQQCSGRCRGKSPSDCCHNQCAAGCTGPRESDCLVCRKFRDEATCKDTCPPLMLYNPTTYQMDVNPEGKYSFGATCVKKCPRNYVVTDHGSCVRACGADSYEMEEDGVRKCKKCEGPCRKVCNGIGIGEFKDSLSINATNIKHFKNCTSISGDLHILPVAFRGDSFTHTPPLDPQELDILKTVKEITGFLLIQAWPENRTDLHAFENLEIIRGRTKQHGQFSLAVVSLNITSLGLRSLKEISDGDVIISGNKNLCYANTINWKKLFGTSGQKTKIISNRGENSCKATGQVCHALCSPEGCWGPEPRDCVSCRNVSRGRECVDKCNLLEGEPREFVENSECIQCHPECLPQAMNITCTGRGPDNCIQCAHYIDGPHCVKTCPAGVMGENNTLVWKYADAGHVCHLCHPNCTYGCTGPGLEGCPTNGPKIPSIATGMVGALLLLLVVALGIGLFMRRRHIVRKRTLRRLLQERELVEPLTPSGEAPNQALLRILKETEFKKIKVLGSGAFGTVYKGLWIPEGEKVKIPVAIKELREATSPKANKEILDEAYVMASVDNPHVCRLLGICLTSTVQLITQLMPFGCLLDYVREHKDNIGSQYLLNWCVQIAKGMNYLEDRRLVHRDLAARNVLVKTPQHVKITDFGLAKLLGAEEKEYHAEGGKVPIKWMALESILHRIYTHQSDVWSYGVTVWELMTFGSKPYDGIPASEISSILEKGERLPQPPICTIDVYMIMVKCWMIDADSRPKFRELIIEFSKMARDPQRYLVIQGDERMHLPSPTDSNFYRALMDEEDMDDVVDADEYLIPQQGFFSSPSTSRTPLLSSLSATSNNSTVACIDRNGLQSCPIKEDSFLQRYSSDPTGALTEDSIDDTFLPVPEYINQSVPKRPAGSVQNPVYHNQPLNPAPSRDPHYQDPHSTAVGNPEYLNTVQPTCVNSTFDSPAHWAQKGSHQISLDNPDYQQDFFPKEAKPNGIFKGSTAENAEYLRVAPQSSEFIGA

One may read the IC50 as the midpoint of a concentration-inhibition curve. Read a high IC50 as weaker potency. For `Fc1ccc(-c2nc(Nc3cc(Br)cc4cc(-c5ccc(F)cc5)[nH]c34)c3ccccc3n2)cc1` [4f, N-(5-Bromo-2-(4-fluorophenyl)-1H-indol-7-yl)-2-(4-fluorophenyl)quinazolin-4-amine], the IC50 came out at 52.5 nM.

Source of the values: publication PMC6121530, “Synthesis, Biological Evaluation and Molecular Docking of Novel Indole-Aminoquinazoline Hybrids for Anticancer Properties” (International Journal of Molecular Sciences, 2018).
